Reference: patent publication US20260092071A1, “COMPOUNDS AND COMPOSITIONS AS SMARCA2/4 DEGRADERS AND USES THEREOF” (REGENTS OF THE UNIVERSITY OF MICHIGAN, priority 2022, published 2026)

How the values were obtained:
[1] = target: SMARCA2 (Homo sapiens, UniProt P51531); assay: HiBit assay in engineered HT1080 CRISPR knock-in cell, 6 hrs (B series), SMARCA2; type: cell-based; conditions: 6 hrs incubation; for DC50: HT1080 CRISPR knock-in cells, read-out: SMARC A2 HT1080 HiBit DC50; for Dmax: HT-1080, HT1080 CRISPR knock-in cells, read-out: SMARC A2 HT1080 HiBit Dmax (%)
Sequence of SMARCA2 (P51531 whole entry): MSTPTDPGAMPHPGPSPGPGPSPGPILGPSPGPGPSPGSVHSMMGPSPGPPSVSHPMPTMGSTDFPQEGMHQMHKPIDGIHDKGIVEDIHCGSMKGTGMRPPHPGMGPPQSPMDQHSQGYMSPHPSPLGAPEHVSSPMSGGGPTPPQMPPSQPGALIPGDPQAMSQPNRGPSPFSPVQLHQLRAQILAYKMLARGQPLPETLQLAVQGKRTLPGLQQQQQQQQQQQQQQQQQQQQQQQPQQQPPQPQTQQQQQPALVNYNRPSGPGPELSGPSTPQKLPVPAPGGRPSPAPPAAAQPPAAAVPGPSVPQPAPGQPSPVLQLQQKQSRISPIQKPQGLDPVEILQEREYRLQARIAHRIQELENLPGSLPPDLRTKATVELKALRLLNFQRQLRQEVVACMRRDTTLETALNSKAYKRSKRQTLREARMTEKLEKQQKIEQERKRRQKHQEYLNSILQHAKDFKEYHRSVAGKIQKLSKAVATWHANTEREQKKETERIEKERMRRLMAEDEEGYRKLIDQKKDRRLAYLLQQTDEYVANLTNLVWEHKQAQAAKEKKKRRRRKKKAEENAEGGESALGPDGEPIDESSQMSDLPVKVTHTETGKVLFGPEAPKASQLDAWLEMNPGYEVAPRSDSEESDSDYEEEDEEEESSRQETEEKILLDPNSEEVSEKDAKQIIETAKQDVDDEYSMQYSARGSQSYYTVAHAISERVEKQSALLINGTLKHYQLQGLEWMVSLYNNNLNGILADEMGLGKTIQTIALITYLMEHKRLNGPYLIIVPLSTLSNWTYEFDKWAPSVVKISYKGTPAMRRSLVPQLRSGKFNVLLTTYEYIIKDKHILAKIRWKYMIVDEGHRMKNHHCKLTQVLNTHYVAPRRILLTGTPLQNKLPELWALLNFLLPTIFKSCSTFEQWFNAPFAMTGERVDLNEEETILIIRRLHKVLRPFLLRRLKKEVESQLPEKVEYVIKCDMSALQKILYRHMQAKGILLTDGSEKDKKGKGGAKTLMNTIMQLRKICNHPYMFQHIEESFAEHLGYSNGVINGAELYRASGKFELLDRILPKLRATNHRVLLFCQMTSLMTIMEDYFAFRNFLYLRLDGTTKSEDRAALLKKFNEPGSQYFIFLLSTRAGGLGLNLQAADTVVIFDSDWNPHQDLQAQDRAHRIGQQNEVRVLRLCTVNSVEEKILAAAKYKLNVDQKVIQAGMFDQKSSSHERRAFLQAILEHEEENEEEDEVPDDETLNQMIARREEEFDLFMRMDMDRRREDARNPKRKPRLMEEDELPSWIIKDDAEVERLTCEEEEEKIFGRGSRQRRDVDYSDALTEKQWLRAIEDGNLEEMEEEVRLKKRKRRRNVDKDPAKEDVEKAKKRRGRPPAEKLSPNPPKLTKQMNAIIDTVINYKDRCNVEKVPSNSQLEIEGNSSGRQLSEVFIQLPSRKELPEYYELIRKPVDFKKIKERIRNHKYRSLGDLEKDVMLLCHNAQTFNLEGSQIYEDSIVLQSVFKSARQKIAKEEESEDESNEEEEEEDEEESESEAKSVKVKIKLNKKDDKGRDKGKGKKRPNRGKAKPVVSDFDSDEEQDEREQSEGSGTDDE
Procedure, shortened: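 Compounds were dispensed first, then HT1080 knock-in cells added and incubated for 6 hrs at 37° C. Next, detection reagent containing LgBiT and lytic substrate was added. Plates were shaken 10 min and centrifuged, and luminescence was measured.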

[2] = target: SMARCA4 (Homo sapiens, UniProt P51532); assay: HiBit assay in engineered HT1080 CRISPR knock-in cell, 6 hrs (B series), SMARCA4; type: cell-based; conditions: 6 hrs incubation; for DC50: HT1080 CRISPR knock-in cells, read-out: SMARC A4 HT1080 HiBit DC50; for Dmax: HT-1080, HT1080 CRISPR knock-in cells, read-out: SMARC A4 HT1080 HiBit Dmax(%)
Sequence of SMARCA4 (P51532 whole entry): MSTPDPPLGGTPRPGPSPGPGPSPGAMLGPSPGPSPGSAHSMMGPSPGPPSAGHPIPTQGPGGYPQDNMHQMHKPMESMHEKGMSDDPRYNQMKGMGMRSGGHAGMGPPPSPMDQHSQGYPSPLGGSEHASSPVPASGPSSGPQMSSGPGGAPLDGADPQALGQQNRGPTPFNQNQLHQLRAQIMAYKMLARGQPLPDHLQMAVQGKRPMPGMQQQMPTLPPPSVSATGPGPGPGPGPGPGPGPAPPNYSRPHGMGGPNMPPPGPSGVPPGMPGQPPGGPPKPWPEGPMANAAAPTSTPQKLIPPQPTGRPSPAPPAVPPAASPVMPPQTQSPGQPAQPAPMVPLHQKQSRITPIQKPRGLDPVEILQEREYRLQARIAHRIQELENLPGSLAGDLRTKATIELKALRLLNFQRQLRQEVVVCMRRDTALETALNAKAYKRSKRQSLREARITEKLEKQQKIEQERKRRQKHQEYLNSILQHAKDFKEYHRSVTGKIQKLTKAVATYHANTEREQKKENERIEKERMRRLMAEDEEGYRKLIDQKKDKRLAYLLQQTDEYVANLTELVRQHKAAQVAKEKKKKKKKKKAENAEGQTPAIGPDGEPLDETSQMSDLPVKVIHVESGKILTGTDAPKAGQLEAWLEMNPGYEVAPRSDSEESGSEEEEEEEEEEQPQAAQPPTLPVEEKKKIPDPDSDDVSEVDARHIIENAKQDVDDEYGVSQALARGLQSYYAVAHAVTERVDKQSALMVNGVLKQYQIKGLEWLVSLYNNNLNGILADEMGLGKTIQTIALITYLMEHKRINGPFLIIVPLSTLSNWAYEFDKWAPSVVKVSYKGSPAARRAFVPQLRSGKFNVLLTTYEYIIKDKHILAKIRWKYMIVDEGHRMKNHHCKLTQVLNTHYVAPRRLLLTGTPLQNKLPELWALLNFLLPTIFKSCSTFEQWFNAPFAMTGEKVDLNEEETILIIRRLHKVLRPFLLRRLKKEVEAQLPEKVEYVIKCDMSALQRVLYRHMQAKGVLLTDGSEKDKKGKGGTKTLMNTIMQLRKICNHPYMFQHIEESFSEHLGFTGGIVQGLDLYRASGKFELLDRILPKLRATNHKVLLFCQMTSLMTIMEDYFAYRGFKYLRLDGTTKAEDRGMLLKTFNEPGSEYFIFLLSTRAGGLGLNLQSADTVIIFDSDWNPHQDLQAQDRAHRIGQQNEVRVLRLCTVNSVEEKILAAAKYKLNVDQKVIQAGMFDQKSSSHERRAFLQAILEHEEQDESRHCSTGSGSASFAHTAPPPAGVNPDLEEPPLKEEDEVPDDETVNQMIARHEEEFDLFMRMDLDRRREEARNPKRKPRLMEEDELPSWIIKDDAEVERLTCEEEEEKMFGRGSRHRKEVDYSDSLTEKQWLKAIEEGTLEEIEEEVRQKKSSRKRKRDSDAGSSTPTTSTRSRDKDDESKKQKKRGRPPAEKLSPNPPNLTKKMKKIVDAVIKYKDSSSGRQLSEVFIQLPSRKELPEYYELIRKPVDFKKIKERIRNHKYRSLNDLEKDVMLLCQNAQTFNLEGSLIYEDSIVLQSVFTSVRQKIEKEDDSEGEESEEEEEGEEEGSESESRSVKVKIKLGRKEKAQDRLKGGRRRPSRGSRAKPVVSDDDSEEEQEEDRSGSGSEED
Procedure, shortened: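 Protein abundance is measured in HiBiT-tagged HT1080 CRISPR knock-in cells after a 6 hr compound treatment (0.1% DMSO) by lytic Nano-Glo HiBiT luminescence.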

SMILES | DC50 [1] | Dmax [1] | DC50 [2] | Dmax [2]
Cc1ncsc1-c1ccc([C@H](C)NC(=O)[C@@H]2C[C@@H](O)CN2C(=O)[C@@H](NC(=O)CCN2CCC(c3ccc4c(c3)-n3c(nc(=O)c5c(Cl)cccc53)C4(C)C)CC2)C(C)(C)C)cc1 [Compound B43, (2S,4R)-1-((S)-2-(3-(4-(4-chloro-7,7-dimethyl-5-oxo-5,7-dihydroindolo[1,2-a]quinazolin-10-yl)piperidin-1-yl)propanamido)-3,3-dimethylbutanoyl)-4-hydroxy-N—((S)-1-(4-(4-methylthiazol-5-yl)phenyl)ethyl)pyrrolidine-2-carboxamide] | 100 to 500 nM | 50 to 69% | > 1000 nM | < 50%
Cc1ncsc1-c1ccc([C@H](CC(=O)NCCN2CCC(c3ccc4c(c3)-n3c(nc(=O)c5c(Cl)cccc53)C4(C)C)CC2)NC(=O)[C@@H]2C[C@@H](O)CN2C(=O)[C@@H](NC(=O)C2(F)CC2)C(C)(C)C)cc1 [Compound B44, (2S,4R)-N-((S)-3-((2-(4-(4-chloro-7,7-dimethyl-5-oxo-5,7-dihydroindolo[1,2-a]quinazolin-10-yl)piperidin-1-yl)ethyl)amino)-1-(4-(4-methylthiazol-5-yl)phenyl)-3-oxopropyl)-1-((S)-2-(1-fluorocyclopropane-1-carboxamido)-3,3-dimethylbutanoyl)-4-hydroxypyrrolidine-2-carboxamide] | 100 to 500 nM | < 50% | 100 to 500 nM | < 50%
Cc1ncsc1-c1ccc([C@H](C)NC(=O)[C@@H]2C[C@@H](O)CN2C(=O)[C@@H](NC(=O)CCCN2CCC(c3ccc4c(c3)-n3c(nc(=O)c5c(Cl)cccc53)C4(C)C)CC2)C(C)(C)C)cc1 [Compound B45, (2S,4R)-1-((S)-2-(4-(4-(4-chloro-7,7-dimethyl-5-oxo-5,7-dihydroindolo[1,2-a]quinazolin-10-yl)piperidin-1-yl)butanamido)-3,3-dimethylbutanoyl)-4-hydroxy-N-((S)-1-(4-(4-methylthiazol-5-yl)phenyl)ethyl)pyrrolidine-2-carboxamide] | 100 to 500 nM | 70 to 90% | > 1000 nM | < 50%
Cc1ncsc1-c1ccc([C@H](CCCCCn2cc(-c3ccc4c(c3)-n3c(nc(=O)c5c(Cl)cccc53)C4(C)C)cn2)NC(=O)[C@@H]2C[C@@H](O)CN2C(=O)[C@@H](NC(=O)C2(F)CC2)C(C)(C)C)cc1 [Compound B46, (2S,4R)-N-((S)-6-(4-(4-chloro-7,7-dimethyl-5-oxo-5,7-dihydroindolo[1,2-a]quinazolin-10-yl)-1H-pyrazol-1-yl)-1-(4-(4-methylthiazol-5-yl)phenyl)hexyl)-1-((S)-2-(1-fluorocyclopropane-1-carboxamido)-3,3-dimethylbutanoyl)-4-hydroxypyrrolidine-2-carboxamide] | < 100 nM | 70 to 90% | < 100 nM | 70 to 90%
Cc1ncsc1-c1ccc([C@H](C)NC(=O)[C@@H]2C[C@@H](O)CN2C(=O)[C@@H](NC(=O)[C@H]2CC[C@H](Cn3cc(-c4ccc5c(c4)C(C)(C)c4nc(=O)c6c(Cl)cccc6n4-5)cn3)CC2)C(C)(C)C)cc1 [Compound B48, (2S,4R)-1-((S)-2-((1r,4S)-4-((4-(4-chloro-7,7-dimethyl-5-oxo-5,7-dihydroindolo[1,2-a]quinazolin-9-yl)-1H-pyrazol-1-yl)methyl)cyclohexane-1-carboxamido)-3,3-dimethylbutanoyl)-4-hydroxy-N—((S)-1-(4-(4-methylthiazol-5-yl)phenyl)ethyl)pyrrolidine-2-carboxamide] | < 100 nM | 70 to 90% | 100 to 500 nM | < 50%

Results, then the compound that gave them:

DC50 [1] | Dmax [1] | DC50 [2] | Dmax [2] | SMILES
100 to 500 nM | 70 to 90% | 100 to 500 nM | < 50% | Cc1ncsc1-c1ccc([C@H](C)NC(=O)[C@@H]2C[C@@H](O)CN2C(=O)[C@@H](NC(=O)C2CCC(N3CCC(c4ccc5c(c4)-n4c(nc(=O)c6c(Cl)cccc64)C5(C)C)CC3)CC2)C(C)(C)C)cc1 (stereo partly drawn) [Compound B47, (2S,4R)-1-((S)-2-(4-(4-(4-chloro-7,7-dimethyl-5-oxo-5,7-dihydroindolo[1,2-a]quinazolin-10-yl)piperidin-1-yl)cyclohexane-1-carboxamido)-3,3-dimethylbutanoyl)-4-hydroxy-N-((S)-1-(4-(4-methylthiazol-5-yl)phenyl)ethyl)pyrrolidine-2-carboxamide]
< 100 nM | 70 to 90% | > 1000 nM | < 50% | Cc1ncsc1-c1ccc([C@H](C)NC(=O)[C@@H]2C[C@@H](O)CN2C(=O)[C@H](C(C)C)n2cc(CN3CCC(c4ccc5c(c4)-n4c(nc(=O)c6c(Cl)cccc64)C5(C)C)CC3)nn2)cc1 [Compound B49, (2S,4R)-1-((S)-2-(4-((4-(4-chloro-7,7-dimethyl-5-oxo-5,7-dihydroindolo[1,2-a]quinazolin-10-yl)piperidin-1-yl)methyl)-1H-1,2,3-triazol-1-yl)-3-methylbutanoyl)-4-hydroxy-N-((S)-1-(4-(4-methylthiazol-5-yl)phenyl)ethyl)pyrrolidine-2-carboxamide]
100 to 500 nM | 70 to 90% | > 1000 nM | < 50% | Cc1ncsc1-c1ccc([C@H](C)NC(=O)[C@@H]2C[C@@H](O)CN2C(=O)[C@@H](NC(=O)CCCCN2CCC(c3ccc4c(c3)-n3c(nc(=O)c5c(Cl)cccc53)C4(C)C)CC2)C(C)(C)C)cc1 [Compound B50, (2S,4R)-1-((S)-2-(5-(4-(4-chloro-7,7-dimethyl-5-oxo-5,7-dihydroindolo[1,2-a]quinazolin-10-yl)piperidin-1-yl)pentanamido)-3,3-dimethylbutanoyl)-4-hydroxy-N-((S)-1-(4-(4-methylthiazol-5-yl)phenyl)ethyl)pyrrolidine-2-carboxamide]
< 100 nM | > 90% | < 100 nM | 70 to 90% | Cc1ncsc1-c1ccc([C@H](C)NC(=O)[C@@H]2C[C@@H](O)CN2C(=O)[C@@H](n2cc([C@H]3CC[C@H](CN4CCC(c5ccc6c(c5)-n5c(nc(=O)c7c(Cl)cccc75)C6(C)C)CC4)CC3)nn2)C(C)(C)C)cc1 [Compound B51, (2S,4R)-1-((S)-2-(4-((1r,4S)-4-((4-(4-chloro-7,7-dimethyl-5-oxo-5,7-dihydroindolo[1,2-a]quinazolin-10-yl)piperidin-1-yl)methyl)cyclohexyl)-1H-1,2,3-triazol-1-yl)-3,3-dimethylbutanoyl)-4-hydroxy-N-((S)-1-(4-(4-methylthiazol-5-yl)phenyl)ethyl)pyrrolidine-2-carboxamide]
< 100 nM | 70 to 90% | > 1000 nM | < 50% | Cc1ncsc1-c1ccc([C@H](C)NC(=O)[C@@H]2C[C@@H](O)CN2C(=O)[C@@H](c2cc(OCCn3cc(-c4ccc5c(c4)C(C)(C)c4nc(=O)c6c(Cl)cccc6n4-5)cn3)no2)C(C)C)cc1 [Compound B52, (2S,4R)-1-((R)-2-(3-(2-(4-(4-chloro-7,7-dimethyl-5-oxo-5,7-dihydroindolo[1,2-a]quinazolin-9-yl)-1H-pyrazol-1-yl)ethoxy)isoxazol-5-yl)-3-methylbutanoyl)-4-hydroxy-N-((S)-1-(4-(4-methylthiazol-5-yl)phenyl)ethyl)pyrrolidine-2-carboxamide]
